Patent US5607948A, “Dipiperidine derivatives” (Sumitomo Pharmaceuticals Co., Ltd., priority 1993, dated 1997)

Key:
[1] = system: platelet aggregation in platelet-rich plasma (PRP); assay: Platelet aggregation inhibiting effect (ADP-induced aggregation in platelet-rich plasma); format: cell-based, human (healthy man); conditions: Homo sapiens, PRP of a healthy person, ADP final concentration 3 μg/ml, 37° C., read-out: IC50 (concentration needed to inhibit the platelet aggregation by 50%)
Description: Blood was collected from the elbow vein of a healthy person, to which was added 3.8% sodium citrate of 1/10 times by volume the blood. This was centrifuged at 1000 rpm (150 g) for 10 minutes, and the resulting supernatant of a platelet-rich plasma (PRP) was collected. 2 μl of a solution of a test compound was added to 200 μl of the PRP and kept at 37° C. for 2 minutes while stirring at 1000 rpm. Then, 22 μl of a platelet aggregation promoter of ADP (adenosine diphosphate, final concentration: 3 μg/ml) was added. The degree of platelet aggregation of the sample was measured by colorimetry, using a hematracer (ex Niko Bioscience Co.). The platelet aggregation inhibiting activity of the test compound was represented by IC50, which indicates the concentration of the compound that was needed to inhibit the platelet aggregation by 50%.

Fibrinogen = target: T1, Fibrinogen (Homo sapiens, UniProt P05106+P08514); assay: Bonding of platelets to fibrinogen; format: binding; conditions: activated, paraformaldehyde-fixed platelets; plate coated with fibrinogen 5 μg/ml; 37° C. 2 hours; read-out: IC50, inhibition of bonding of platelets to Fibrinogen
T1 construct: endogenous in cells
T1 sequence (P08514 32-887 limits assumed): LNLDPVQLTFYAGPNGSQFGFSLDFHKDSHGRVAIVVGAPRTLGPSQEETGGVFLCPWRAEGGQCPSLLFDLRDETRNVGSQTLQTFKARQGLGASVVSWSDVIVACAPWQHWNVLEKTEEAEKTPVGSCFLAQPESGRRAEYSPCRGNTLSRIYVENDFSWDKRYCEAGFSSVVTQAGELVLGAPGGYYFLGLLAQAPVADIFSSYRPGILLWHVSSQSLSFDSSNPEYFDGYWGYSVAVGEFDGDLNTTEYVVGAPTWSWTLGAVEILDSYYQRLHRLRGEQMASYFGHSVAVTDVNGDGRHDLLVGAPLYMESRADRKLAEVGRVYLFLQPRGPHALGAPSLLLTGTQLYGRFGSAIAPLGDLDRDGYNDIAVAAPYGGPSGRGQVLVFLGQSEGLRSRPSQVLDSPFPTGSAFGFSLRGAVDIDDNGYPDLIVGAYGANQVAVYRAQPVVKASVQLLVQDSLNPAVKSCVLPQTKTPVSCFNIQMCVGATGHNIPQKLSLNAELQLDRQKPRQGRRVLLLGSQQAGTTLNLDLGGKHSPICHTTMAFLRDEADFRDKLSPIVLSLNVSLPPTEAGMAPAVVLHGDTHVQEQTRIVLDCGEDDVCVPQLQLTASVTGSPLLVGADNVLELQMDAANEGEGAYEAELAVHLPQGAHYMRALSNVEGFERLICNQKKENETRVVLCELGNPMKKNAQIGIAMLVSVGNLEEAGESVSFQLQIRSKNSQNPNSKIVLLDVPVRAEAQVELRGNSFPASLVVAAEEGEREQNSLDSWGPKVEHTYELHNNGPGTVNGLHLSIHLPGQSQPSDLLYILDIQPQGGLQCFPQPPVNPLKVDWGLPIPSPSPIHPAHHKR
T1 sequence (P08514 891-1039 limits assumed): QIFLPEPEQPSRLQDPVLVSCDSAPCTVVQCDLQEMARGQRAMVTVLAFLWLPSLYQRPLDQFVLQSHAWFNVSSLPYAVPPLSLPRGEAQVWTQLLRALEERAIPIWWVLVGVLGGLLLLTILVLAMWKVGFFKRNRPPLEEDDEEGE
T1 sequence (P05106 27-788): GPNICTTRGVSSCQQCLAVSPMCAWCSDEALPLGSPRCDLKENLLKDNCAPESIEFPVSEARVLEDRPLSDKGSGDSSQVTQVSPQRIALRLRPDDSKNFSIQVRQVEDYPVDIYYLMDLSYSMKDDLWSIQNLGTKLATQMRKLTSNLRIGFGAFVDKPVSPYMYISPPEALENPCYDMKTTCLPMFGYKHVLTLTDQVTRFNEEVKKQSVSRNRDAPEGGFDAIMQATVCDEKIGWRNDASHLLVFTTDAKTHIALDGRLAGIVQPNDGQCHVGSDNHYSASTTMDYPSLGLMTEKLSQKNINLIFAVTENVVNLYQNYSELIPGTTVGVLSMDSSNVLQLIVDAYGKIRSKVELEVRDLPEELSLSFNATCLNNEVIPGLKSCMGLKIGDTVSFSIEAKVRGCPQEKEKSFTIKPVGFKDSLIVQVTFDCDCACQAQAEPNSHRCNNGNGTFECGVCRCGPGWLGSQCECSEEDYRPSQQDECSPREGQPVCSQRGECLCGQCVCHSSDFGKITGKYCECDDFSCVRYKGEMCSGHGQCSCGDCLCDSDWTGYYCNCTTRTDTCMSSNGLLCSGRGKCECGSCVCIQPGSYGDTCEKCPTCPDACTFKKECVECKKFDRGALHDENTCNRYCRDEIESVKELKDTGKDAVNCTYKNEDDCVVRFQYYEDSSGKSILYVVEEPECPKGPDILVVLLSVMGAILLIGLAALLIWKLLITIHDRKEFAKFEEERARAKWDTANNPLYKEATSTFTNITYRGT
Description: (§1) 50 ng/ml of PGI2 was added to the PRP sample and subjected to centrifugation at 11000 rpm for 2 minutes, by which the platelets were precipitated. The platelet precipitate was washed with 3.8 mM Hepes buffer (pH 7.4, Tyrode-Hepes buffer) containing 0.14 M NaCl, 2.7 mM KCl, 3.7 mM NaH2 PO4, 0.98 mM MgCl2, 1 mg/ml of glucose, 50 ng/ml of PGI2 and 0.35% BSA. 5 μM epinephrine and 30 μM ADP were added in this order and left at room temperature for 5 minutes, by which the platelets were activated. These were then transferred into a 0.05% paraformaldehyde solution and left at room temperature for 30 minutes, whereby the platelets were fixed in the solution. The thus-fixed platelets were suspended in the Hepes buffer at a concentration of 2×10^8 ml^-1.
(§2) Fibrinogen (ex Kabi Co.), fibronectin (ex Sigma Co.) or collagen (ex Horm Co.) was diluted with 0.1 M NaHCO3 to have a concentration of 5 μg/ml, put into each well of a 96-well microplate (ex Nunc Co.) at 200 μl/well and left at 4° C. overnight. Then, the plate was washed with a phosphate buffered saline (PBS) and blocked with 3% BSA at 37° C. for 1 hour. To the plate were added the platelet suspension (final concentration: 10^8 ml^-1) and a varying concentration of a test compound (total amount: 200 μl/well), and the plate was kept at 37° C. for 2 hours. Then, this was washed with PBS, and 2 μg/ml of an anti-CD9 monoclonal antibody was added and kept at 37° C. for 60 minutes. Next, this was treated with a 1/1000 dilution of an enzyme (HRP)-labeled anti-mouse IgG polyclonal antibody at 37 °C. for 60 minutes, and 100 μl/well of an HRP-coloration substrate (0.1 M phosphate buffer with pH 5, containing 0.4 mg/ml of o-phenylenediamine, 0.01% H2 O2 and 0.1 M citric acid) was added and reacted at room temperature for 15 minutes. By adding 20 μl/well of 4.5 M H2 SO4, the reaction was stopped. Then, the absorbance of the thus-reacted sample at 490 nm was measured. […]

Fibronectin = assay: Bonding of platelets to fibronectin; format: binding; conditions: activated, paraformaldehyde-fixed platelets; plate coated with fibronectin 5 μg/ml; 37° C. 2 hours; read-out: IC50, inhibition of bonding of platelets to Fibronectin
Description: as §1, §2

Collagen = assay: Bonding of platelets to collagen; format: binding; conditions: activated, paraformaldehyde-fixed platelets; plate coated with collagen 5 μg/ml; 37° C. 2 hours; read-out: IC50, inhibition of bonding of platelets to Collagen
Description: as §1, §2

## COc1ccc(C[C@H](NC(=O)COC2CCNCC2)C(=O)N2CCC(OCC(=O)O)CC2)cc1 [Compound (15)]
[1]
  IC50: 48 nM
Fibrinogen
  IC50: 250 nM
Fibronectin
  IC50: 240 nM
Collagen
  IC50: > 100000 nM

## O=C(O)CCC1CCN(C(=O)[C@H](Cc2ccc(O)cc2)NC(=O)COC2CCNCC2)CC1 [Compound (44), 3-(1-(N-(4-piperidyloxyacetyl)-L-tyrosyl)-4-piperidyl)propanoic acid]
[1]
  IC50: 630 nM

## O=C(O)COC1CCN(C(=O)[C@H](Cc2ccc(O)cc2)NC(=O)CCC2CCNCC2)CC1 [Compound (20), (1-(N-(3-(4-piperidyl)propanoyl)-L-tyrosyl)-4piperidyloxy)acetic acid]
[1]
  IC50: 135 nM

## CC[C@H](C)[C@H](NC(=O)CCC1CCNCC1)C(=O)N1CCC(OCC(=O)O)CC1 [Compound (27), (1-(N-(3-(4-piperidyl)propanoyl)-L-isoleucyl)-4-piperidyloxy)acetic acid]
[1]
  IC50: 507 nM

## COc1ccc(C[C@H](NC(=O)CCC2CCNCC2)C(=O)N2CCC(OCC(=O)O)CC2)cc1 [Compound (12)]
[1]
  IC50: 60 nM
Fibrinogen
  IC50: 450 nM
Fibronectin
  IC50: 67000 nM
Collagen
  IC50: > 100000 nM

## COc1ccc(C[C@H](NC(=O)CCCC2CCNCC2)C(=O)N2CCC(OCC(=O)O)CC2)cc1 [Compound (18), (1-(N-(4-(4-piperidyl)butanoyl)-O-methyl-L-tyrosyl)-4-piperidyloxy)acetic acid]
[1]
  IC50: 680 nM
Fibrinogen
  IC50: 63000 nM
Fibronectin
  IC50: 7200 nM
Collagen
  IC50: > 100000 nM

## O=C(O)COC1CCN(C(=O)[C@H](CO)NC(=O)CCC2CCNCC2)CC1 [Compound (29), (1-(N-(3-(4-piperidyl)propanoyl)-L-seryl)-4-piperidyloxy)acetic acid]
[1]
  IC50: 886 nM

## CC(C)C[C@H](NC(=O)CCC1CCNCC1)C(=O)N1CCC(OCC(=O)O)CC1 [Compound (26), (1-(N-(3-(4-piperidyl)propanoyl)-L-leucyl)-4-piperidyloxy)acetic acid]
[1]
  IC50: 929 nM

## COc1ccc(C[C@H](NC(=O)COC2CCNCC2)C(=O)N2CCC(CCC(=O)O)CC2)cc1 [Compound (37)]
[1]
  IC50: 117 nM

## COc1ccc(C[C@H](NC(=O)CCC2CCNCC2)C(=O)N2CCC(CCC(=O)O)CC2)cc1 [Compound (35), 3-(1-(N-(3-(4-piperidyl)propanoyl)-O-methyl-L-tyrosyl)-4-piperidyl)propanoic acid]
[1]
  IC50: 712 nM

## O=C(O)CCC1CCN(C(=O)[C@H](Cc2ccc(O)cc2)NC(=O)CCC2CCNCC2)CC1 [Compound (42), 3-(1-(N-(3-(4-piperidyl)propanoyl)-L-tyrosyl)-4-piperidyl)propanoic acid]
[1]
  IC50: 1730 nM

## CC(C)[C@H](NC(=O)CCC1CCNCC1)C(=O)N1CCC(OCC(=O)O)CC1 [Compound (22), (1-(N-(3-(4-piperidyl)propanoyl)-L-valyl)-4-piperidyloxy)acetic acid]
[1]
  IC50: 1100 nM

## O=C(O)COC1CCN(C(=O)[C@H](Cc2ccccc2)NC(=O)CCC2CCNCC2)CC1 [Compound (21), (1-(N-(3-(4-piperidyl)propanoyl)-L-phenylalanyl)-4-piperidyloxy)acetic acid]
[1]
  IC50: 917 nM

## O=C(O)COC1CCN(C(=O)[C@H](Cc2ccc(O)cc2)NC(=O)COC2CCNCC2)CC1 [Compound (19), (1-(N-(4-piperidyloxyacetyl)-L-tyrosyl)-4-piperidyloxy)acetic acid]
[1]
  IC50: 61 nM

## C[C@H](NC(=O)CCC1CCNCC1)C(=O)N1CCC(OCC(=O)O)CC1 [Compound (23), (1-(N-(3-(4-piperidyl)propanoyl)-L-alanyl)-4-piperidyloxy)acetic acid]
[1]
  IC50: 389 nM

## O=C(O)COC1CCN(C(=O)CNC(=O)CCC2CCNCC2)CC1 [Compound (24)]
[1]
  IC50: 2380 nM

## O=C(O)COC1CCN(C(=O)[C@@H]2CCCN2C(=O)CCC2CCNCC2)CC1 [Compound (25), (1-(N-(3-(4-piperidyl)propanoyl)-L-prolyl)-4-piperidyloxy)acetic acid]
[1]
  IC50: 316 nM

## O=C(O)COC1CCN(C(=O)[C@H](Cc2c[nH]c3ccccc23)NC(=O)CCC2CCNCC2)CC1 [Compound (28), (1-(N-(3-(4-piperidyl)propanoyl)-L-tryptophyl)-4-piperidyloxy)acetic acid]
[1]
  IC50: 438 nM
